The values that follow come from patent US11780821B2, “Inhibitors of fibroblast activation protein” (Praxis Biotech LLC, priority 2017, dated 2023).

Experiment [1] addresses T1, recombinant human FAP (rhFAP) (Homo sapiens, UniProt Q12884).
T1 construct: purchased R&D systems 3715-SE-010
T1 sequence (Q12884 1-760): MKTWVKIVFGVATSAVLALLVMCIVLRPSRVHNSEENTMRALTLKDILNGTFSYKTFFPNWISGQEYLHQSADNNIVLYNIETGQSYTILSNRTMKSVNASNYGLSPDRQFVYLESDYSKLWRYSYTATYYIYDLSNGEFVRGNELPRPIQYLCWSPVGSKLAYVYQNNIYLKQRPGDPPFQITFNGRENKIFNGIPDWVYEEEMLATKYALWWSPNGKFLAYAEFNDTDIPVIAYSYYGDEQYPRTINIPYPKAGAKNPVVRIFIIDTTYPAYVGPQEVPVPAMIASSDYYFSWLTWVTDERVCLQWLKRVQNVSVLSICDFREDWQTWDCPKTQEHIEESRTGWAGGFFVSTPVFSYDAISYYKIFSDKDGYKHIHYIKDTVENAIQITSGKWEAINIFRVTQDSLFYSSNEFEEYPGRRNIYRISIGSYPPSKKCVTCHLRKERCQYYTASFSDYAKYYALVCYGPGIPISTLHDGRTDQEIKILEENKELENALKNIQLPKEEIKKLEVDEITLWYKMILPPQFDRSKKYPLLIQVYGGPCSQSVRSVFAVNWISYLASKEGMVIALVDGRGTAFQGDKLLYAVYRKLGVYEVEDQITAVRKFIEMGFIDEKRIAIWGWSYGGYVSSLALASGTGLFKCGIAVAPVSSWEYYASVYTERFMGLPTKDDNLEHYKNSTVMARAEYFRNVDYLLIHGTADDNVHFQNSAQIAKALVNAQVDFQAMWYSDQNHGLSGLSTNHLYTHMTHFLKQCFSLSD
Nature of the experiment: Inhibition of FAP-mediated digestion of FGF21 in vitro. Format: biochemical. How it is done:
Recombinant human FGF21 (rhFGF21; Cat. No. #2539-FG-025/CF, R&D systems) was incubated overnight (16 h) at 37° C. with recombinant human FAP (rhFAP; Cat. No. #3715-SE-010, R&D systems) in digestion buffer (50 mM Tris pH 7.4, 100 mM NaCl, 0.1 mg/ml bovine serum albumin). Reactions were carried out at final concentrations of 1000 ng/mL hFGF21 and 400, 800 or 1200 ng/mL rhFAP in a volume of 100 μL. For SDS-PAGE analysis, after incubation each sample received immediately 4× Laemmli protein sample buffer (Cat. No. #161-0747, Bio-Rad) supplemented with 0.1 ml […]/10 ml aliquot and then boiled at 95° C. during 10 min. An aliquot of 15 μL of each sample were then loaded onto a reducing 20% Tris-Tricine SDS-PAGE gel. For immunoblot analysis, proteins were separated on SDS-PAGE gels and transferred to PVDF membranes (Cat. No. #1620177, Bio-Rad). […] Proteins were detected using the ECL Western Blotting Substrate (Cat. No. #32106, Thermo Fisher Scientific) and visualized using a ChemiDoc™ Imaging System (Biorad) and Image lab software v5.2.1 build 11. […]
Additionally, the IC50 for FAP-mediated proteolytic cleavage of FGF21, was determined in the using a serial dilution of compound 13 (an exemplary compound).

Experiment [2] concerns MC38 mouse colon cancer cell line. Nature of the experiment: Tumor inhibition in vivo (MC38 tumor in C57/BL6 mice). Particulars: 50 mg/kg orally twice daily from day 7 to day 22; no statistical significance observed. The procedure: Female C57/BL6 mice (approximately 8-9 weeks old; 20-21 gr) obtained from the vivarium of Fundación Ciencia & Vida (Santiago, Chile) were maintained in a temperature-controlled room with 12/12 hour light/dark schedule with food and water ad libitum. The mice were acclimated for a minimum period of 4 days upon arrival at the testing facility.
MC38 mouse colon cancer cell line was maintained as monolayer culture in DMEM-F12 (Cat. No.: SH30023.01, Hyclone) supplemented with 10% fetal bovine serum (Cat. No.: 16000, Gibco) and penicillin/streptomycin (Cat. No.: 15140122, Gibco) at 37° C. in an atmosphere with 5% CO2. The cells were routinely subcultured every 3 days to maintain growth at exponential phase. […] Cell pellet was resuspended in approximately 10× volume of cell culture medium and counted. Cell viability was determined to be >95% by trypan blue staining.
At the day of inoculation, female C57/B16 mice (n=15 total) were weighed and identified by marking the tail with numbers using a non-toxic permanent marker. […] Tumors were measured three times per week with digital calipers and tumors volumes, expressed in mm^3, were calculated with the following formula: Tumor volume (mm^3)=(a×b^2)/2 […]
Seven days after inoculation, mean tumor volume was about 100 mm^3. […] Body weight of the mice and tumor volume was recorded two or three times per week for a total of 22 days. […]

As to `N#C[C@@H]1CC(F)(F)CN1C(=O)CNC(=O)c1ccncc1-c1ccccc1` [Compound 13, (S)—N-(2-(2-cyano-4,4-difluoropyrrolidin-1-yl)-2-oxoethyl)-3-phenylisonicotinamide], the “inhibition of proteolytic processing of rhFGF21 by rhFAP (intact rhFGF21, Western blot)” value in experiment [1] (100 and 1000 nM, 16 h at 37° C.) is reported as “intact form of rhFGF21 is preserved”. The “IC50 for FAP-mediated proteolytic cleavage of FGF21” value in experiment [1] (serial dilution, densitometry) is listed as “nanomolar range”.

With `N#C[C@@H]1CC(F)(F)CN1C(=O)CNC(=O)c1ccncc1C1CC1` [Compound 24, (S)—N-(2-(2-cyano-4,4-difluoropyrrolidin-1-yl)-2-oxoethyl)-3-cyclopropylisonicotinamide], the “tumor volume vs vehicle” value in experiment [2] is on record as “smaller volume of tumor”.
